# Experiments:
# [1] = Tasting the mandelic acid alkylamides (sensory panel, ethanolic solution diluted in 11% sugar solution, swallowed); type: in vivo; settings: for estimation of pungency: scale of 1 (very weak) to 9 (very strong), 6-8 testers
# Experimental: The substance to be tasted is dissolved in ethanol and the ethanolic solution is then diluted with an 11% sugar solution (final concentration: c). For tasting, in each case approximately 5 ml of the sugar solution are swallowed. If the threshold value of the substance is known, a value just above the threshold value is chosen for the tasting. A group of 6-8 testers tasted the solutions.
# Where possible, the impression of pungency was estimated on a scale of 1 (very weak) to 9 (very strong).
# [2] = cited from earlier work
compound,measurement,setting,value
"CCCCCCCCNC(=O)C(O)c1ccc(O)c(O)c1 (centres unmarked) [no. 4, 2-(3,4-Dihydroxyphenyl)-2-hydroxy-N-octylacetamide]",taste profile,[1]; 10 ppm in 11% sugar solution,"pungency develops slowly; stinging, rough, slightly spicy"
same,estimation of pungency,[1]; 10 ppm in 11% sugar solution,5
"CCCCCCCCNC(=O)C(O)c1ccc(O)c(OC)c1 (centres unmarked) [no. 9, 2-(4-Hydroxy-3-methoxyphenyl)-2-hydroxy-N-octylacetamide]",taste profile,[1]; 1 ppm in 11% sugar solution,"no pungency initially, develops suddenly, very intense and long-lasting, ginger pungency"
same,estimation of pungency,[1]; 1 ppm in 11% sugar solution,8
"COc1cc(CNC(=O)CCCCCCC(C)C)ccc1O [Dihydrocapsaicin, reference compound]",taste profile,[1]; 100 ppb in 11% sugar solution,"slightly delayed onset of effect in pharyngeal cavity, burning, aggressive, no development of heat"
"CCCCCCCCC(=O)NCc1ccc(O)c(OC)c1 [N-(3-methoxy-4-hydroxybenzyl)nonanoamide, reference compound]",taste profile,[1]; 200 ppb in 11% sugar solution,"slightly delayed onset of effect in pharyngeal cavity, little pungency on the tongue, stinging, no development of heat"
"CCCCCCCCCNC(=O)C(O)c1ccc(O)c(OC)c1 (centres unmarked) [no. 10, 2-(4-Hydroxy-3-methoxyphenyl)-2-hydroxy-N-nonylacetamide]",taste profile,[1]; 10 ppm in 11% sugar solution,immediate onset of pungency; similar to capsaicin
same,estimation of pungency,[1]; 10 ppm in 11% sugar solution,8
"COc1cc(CNC(=O)CCCC/C=C/C(C)C)ccc1O [Capsaicin, N-(4-hydroxy-3-methoxybenzyl)-8-methyl-(6E)-nonenoamide]",damage occurring in the case of frequent use and overdose,[2]; frequent use and overdose,"chronic gastritis, kidney and liver damage"
same,LD50,[2]; mouse oral,47 mg
"CCCCCCCNC(=O)C(O)c1ccc(O)c(OC)c1 (centres unmarked) [no. 8, 2-(4-Hydroxy-3-methoxyphenyl)-2-hydroxy-N-heptylacetamide]",taste profile,[1]; 10 ppm in 11% sugar solution,"pungency develops; burning, slightly over-ripe"
same,estimation of pungency,[1]; 10 ppm in 11% sugar solution,7
"CCCCCCCCNC(=O)C(O)c1ccc(OC)c(O)c1 (centres unmarked) [no. 6, 2-(3-Hydroxy-4-methoxyphenyl)-2-hydroxy-N-octylacetamide]",taste profile,[1]; 1 ppm in 11% sugar solution,"slightly pungent, particularly on the tongue, slight tingling, rapidly disappears again"
same,estimation of pungency,[1]; 1 ppm in 11% sugar solution,3

# Source: patent US20050208084A1, “Use of alkylamidomandelates as flavourings” (priority 2002, published 2005)
